pIC50, pKi: −log10 of the molar value. Converted amounts (≈) assume the structure as drawn. The source made the active and inactive calls. The rule behind the calls is not given here.
Assays:
[1] = molecular target: T1, Adenosine receptor A1 (Homo sapiens, UniProt P30542); assay: Displacement of [3H]CCPA from human A1 receptor expressed in CHO cell membrane by liquid scintillation counting method; type: cell membranes
T1 sequence (P30542 whole entry): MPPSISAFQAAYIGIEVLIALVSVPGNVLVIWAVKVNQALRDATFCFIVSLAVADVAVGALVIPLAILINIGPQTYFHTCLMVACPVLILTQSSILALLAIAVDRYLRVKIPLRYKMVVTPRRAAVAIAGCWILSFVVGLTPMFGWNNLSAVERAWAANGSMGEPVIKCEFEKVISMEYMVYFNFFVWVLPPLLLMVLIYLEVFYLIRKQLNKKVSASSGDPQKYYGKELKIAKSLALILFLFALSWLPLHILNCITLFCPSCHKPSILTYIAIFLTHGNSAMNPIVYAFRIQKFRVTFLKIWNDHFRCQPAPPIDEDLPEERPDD

[2] = molecular target: T2, Adenosine receptor A1 (Rattus norvegicus, UniProt P25099); assay: Displacement of [3H]CCPA from A1 receptor in rat brain cortex membranes by liquid scintillation counting method; type: cell membranes
T2 sequence (P25099 whole entry): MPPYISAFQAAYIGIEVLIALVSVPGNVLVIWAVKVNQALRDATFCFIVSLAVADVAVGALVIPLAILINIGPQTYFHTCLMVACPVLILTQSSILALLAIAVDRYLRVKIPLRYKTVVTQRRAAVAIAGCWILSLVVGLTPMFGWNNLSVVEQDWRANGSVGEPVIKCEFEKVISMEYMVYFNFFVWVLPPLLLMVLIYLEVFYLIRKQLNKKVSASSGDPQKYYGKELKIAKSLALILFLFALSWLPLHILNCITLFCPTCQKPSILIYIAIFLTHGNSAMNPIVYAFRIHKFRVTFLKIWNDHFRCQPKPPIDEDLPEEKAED

[3] = molecular target: Adenosine receptor A2a (Rattus norvegicus, UniProt P30543); assay: Displacement of [3H]MSX from A2A receptor in rat brain striatum membranes measured after 30 mins by liquid scintillation counting method; type: cell membranes
Sequence of Adenosine receptor A2a (Rattus norvegicus, UniProt P30543) (P30543 whole entry): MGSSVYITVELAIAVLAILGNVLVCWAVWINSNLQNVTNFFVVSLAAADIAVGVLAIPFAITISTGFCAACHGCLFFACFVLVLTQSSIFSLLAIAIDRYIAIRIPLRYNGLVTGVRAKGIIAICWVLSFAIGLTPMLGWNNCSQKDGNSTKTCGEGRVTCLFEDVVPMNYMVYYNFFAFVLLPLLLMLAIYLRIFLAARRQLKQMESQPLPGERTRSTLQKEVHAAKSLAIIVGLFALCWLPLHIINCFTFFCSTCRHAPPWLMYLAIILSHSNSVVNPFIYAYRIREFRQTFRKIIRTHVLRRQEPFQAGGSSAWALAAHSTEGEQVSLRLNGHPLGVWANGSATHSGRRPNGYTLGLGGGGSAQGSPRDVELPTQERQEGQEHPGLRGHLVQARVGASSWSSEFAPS

[4] = molecular target: T3, Adenosine receptor A2a (Homo sapiens, UniProt P29274); assay: Displacement of [3H]MSX from human A2A receptor measured after 30 mins by liquid scintillation counting method
T3 sequence (P29274 whole entry): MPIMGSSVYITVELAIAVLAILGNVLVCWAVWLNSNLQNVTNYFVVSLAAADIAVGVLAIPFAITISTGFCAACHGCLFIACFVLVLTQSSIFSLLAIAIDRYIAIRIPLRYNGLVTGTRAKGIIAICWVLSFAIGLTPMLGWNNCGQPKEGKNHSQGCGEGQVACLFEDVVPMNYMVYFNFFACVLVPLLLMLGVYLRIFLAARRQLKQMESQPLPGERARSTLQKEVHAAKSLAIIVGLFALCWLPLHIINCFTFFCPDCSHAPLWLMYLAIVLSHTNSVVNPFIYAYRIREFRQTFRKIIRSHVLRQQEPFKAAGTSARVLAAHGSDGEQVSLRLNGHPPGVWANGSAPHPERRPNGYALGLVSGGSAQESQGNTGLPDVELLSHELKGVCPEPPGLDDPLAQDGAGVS

[5] = molecular target: T4, Amine oxidase [flavin-containing] B (Homo sapiens, UniProt P27338); assay: Inhibition of recombinant human MAO-B expressed in baculovirus infected BTI insect cells preincubated for 30 mins followed by addition of p-tyramine as substrate measured over 45 mins by Amplex Red MAO assay
T4 sequence (P27338 whole entry): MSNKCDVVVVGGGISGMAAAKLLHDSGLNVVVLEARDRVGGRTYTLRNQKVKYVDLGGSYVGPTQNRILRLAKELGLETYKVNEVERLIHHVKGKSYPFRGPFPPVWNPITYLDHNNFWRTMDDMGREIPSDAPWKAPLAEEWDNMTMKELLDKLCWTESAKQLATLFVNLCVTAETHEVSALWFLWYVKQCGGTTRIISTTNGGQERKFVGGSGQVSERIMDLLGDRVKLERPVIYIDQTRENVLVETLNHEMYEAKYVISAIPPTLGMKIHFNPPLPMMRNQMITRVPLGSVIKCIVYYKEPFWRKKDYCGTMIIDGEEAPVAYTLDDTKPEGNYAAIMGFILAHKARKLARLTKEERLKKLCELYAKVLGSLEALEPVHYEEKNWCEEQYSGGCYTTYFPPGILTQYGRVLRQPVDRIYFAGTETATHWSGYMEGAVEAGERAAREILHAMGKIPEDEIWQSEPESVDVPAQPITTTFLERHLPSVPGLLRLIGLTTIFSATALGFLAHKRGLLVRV

[6] = molecular target: T4, Amine oxidase [flavin-containing] B; assay: Inhibition of recombinant human MAO-B expressed in baculovirus infected BTI insect cells at 10 uM preincubated for 30 mins followed by addition of p-tyramine as substrate measured over 45 mins by Amplex Red MAO assay relative to control; conditions: 0.75 h
[7] = molecular target: T5, Adenosine receptor A1 (Homo sapiens) (UniProt P30542); assay: Agonist activity at recombinant human A1 receptor expressed in CHO cells assessed as inhibition of forskolin-induced cAMP accumulation at 10 uM preincubated for 20 mins prior to forskolin-stimulation measure after 5 mins by liquid scintillation counting method; type: functional, cell-based
T5 sequence (whole entry): T1 sequence (P30542 whole entry)

[8] = molecular target: T5, Adenosine receptor A1 (Homo sapiens); assay: Agonist activity at recombinant human A1 receptor expressed in CHO cells assessed as inhibition of forskolin-induced cAMP accumulation at 1 uM preincubated for 20 mins prior to forskolin-stimulation measure after 5 mins by liquid scintillation counting method; type: functional, cell-based
[9] = molecular target: T3, Adenosine receptor A2a; assay: Agonist activity at recombinant human A2A receptor expressed in CHO cells assessed as increase in forskolin-induced cAMP level at 10 uM preincubated for 20 mins prior to forskolin-stimulation measure after 5 mins by liquid scintillation counting method; type: functional, cell-based
[10] = molecular target: T3, Adenosine receptor A2a; assay: Agonist activity at recombinant human A2A receptor expressed in CHO cells assessed as increase in forskolin-induced cAMP level at 1 uM preincubated for 20 mins prior to forskolin-stimulation measure after 5 mins by liquid scintillation counting method; type: functional, cell-based
[11] = molecular target: T6, Adenosine receptor A2b (Homo sapiens, UniProt P29275); assay: Displacement of [3H]PSB-603 from human A2B receptor expressed in CHO cell membrane; type: cell membranes
T6 sequence (P29275 whole entry): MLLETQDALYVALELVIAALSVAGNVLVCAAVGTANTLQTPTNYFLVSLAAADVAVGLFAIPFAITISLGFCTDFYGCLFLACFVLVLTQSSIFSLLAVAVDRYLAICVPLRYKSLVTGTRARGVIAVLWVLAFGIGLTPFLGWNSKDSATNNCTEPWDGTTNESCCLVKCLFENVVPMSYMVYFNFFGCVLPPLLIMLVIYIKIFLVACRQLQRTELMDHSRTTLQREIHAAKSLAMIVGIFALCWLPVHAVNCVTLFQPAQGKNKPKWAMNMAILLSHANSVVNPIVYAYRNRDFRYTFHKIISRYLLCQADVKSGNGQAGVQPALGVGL

[12] = molecular target: T7, Adenosine receptor A2b (Homo sapiens) (UniProt P29275); assay: Displacement of [3H]PSB-603 from human A2B receptor expressed in CHO cell membrane at 1 uM relative to control; type: cell membranes
T7 sequence (whole entry): T6 sequence (P29275 whole entry)

[13] = molecular target: T8, Adenosine receptor A3 (Homo sapiens, UniProt P0DMS8); assay: Displacement of [3H]PSB-11 from human A3 receptor expressed in CHO cell membrane by liquid scintillation counting method relative to control; type: cell membranes
T8 sequence (P0DMS8 whole entry): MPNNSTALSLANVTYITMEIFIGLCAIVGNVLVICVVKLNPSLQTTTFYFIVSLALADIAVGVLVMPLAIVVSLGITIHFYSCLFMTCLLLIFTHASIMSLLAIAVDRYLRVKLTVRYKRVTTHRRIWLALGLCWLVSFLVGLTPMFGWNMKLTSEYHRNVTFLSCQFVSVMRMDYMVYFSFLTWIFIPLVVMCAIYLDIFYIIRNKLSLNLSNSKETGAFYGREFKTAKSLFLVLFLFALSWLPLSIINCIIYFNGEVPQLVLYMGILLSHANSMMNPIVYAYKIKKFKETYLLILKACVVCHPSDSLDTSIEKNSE

[14] = Thermodynamic solubility of the compound at pH 1; type: physicochemical; conditions: buffer, read-out: Therm_solubility
[15] = Thermodynamic solubility of the compound at pH 4; type: physicochemical; conditions: buffer, read-out: Therm_solubility
[16] = Thermodynamic solubility of the compound at pH 7.4; type: physicochemical; conditions: buffer, read-out: Therm_solubility
[17] = molecular target: T9, Adenosine receptor A1 (Rattus norvegicus) (UniProt P25099); assay: Displacement of [3H]CCPA from A1 receptor in rat brain cortex membranes at 1.5 uM by liquid scintillation counting method; type: cell membranes
T9 sequence (whole entry): T2 sequence (P25099 whole entry)

[18] = molecular target: Adenosine receptor A2a (Rattus norvegicus) (UniProt P30543); assay: Displacement of [3H]MSX from A2A receptor in rat brain striatum membranes at 1 uM measured after 30 mins by liquid scintillation counting method relative to control; type: cell membranes
Sequence of Adenosine receptor A2a (Rattus norvegicus) (P30543 whole entry): as the sequence (P30543 whole entry) above

[19] = molecular target: T10, Amine oxidase [flavin-containing] A (Homo sapiens, UniProt P21397); assay: Inhibition of recombinant human MAO-A expressed in baculovirus infected BTI insect cells preincubated for 30 mins followed by addition of p-tyramine as substrate measured over 45 mins by Amplex Red MAO assay
T10 sequence (P21397 whole entry): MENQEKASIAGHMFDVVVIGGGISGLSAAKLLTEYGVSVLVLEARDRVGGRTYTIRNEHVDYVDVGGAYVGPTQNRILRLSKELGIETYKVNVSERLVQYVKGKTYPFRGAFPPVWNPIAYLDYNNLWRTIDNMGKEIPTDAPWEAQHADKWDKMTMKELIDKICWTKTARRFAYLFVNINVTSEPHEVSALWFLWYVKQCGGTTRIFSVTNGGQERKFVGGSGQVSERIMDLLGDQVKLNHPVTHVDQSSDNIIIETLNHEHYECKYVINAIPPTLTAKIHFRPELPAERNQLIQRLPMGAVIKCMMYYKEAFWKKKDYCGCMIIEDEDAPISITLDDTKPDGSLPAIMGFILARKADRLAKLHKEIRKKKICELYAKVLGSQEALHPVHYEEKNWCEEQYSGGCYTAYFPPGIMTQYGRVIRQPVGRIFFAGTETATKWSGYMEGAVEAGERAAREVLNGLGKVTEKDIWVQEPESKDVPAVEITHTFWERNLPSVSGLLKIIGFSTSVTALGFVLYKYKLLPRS

[20] = molecular target: T10, Amine oxidase [flavin-containing] A; assay: Inhibition of recombinant human MAO-A expressed in baculovirus infected BTI insect cells at 10 uM preincubated for 30 mins followed by addition of p-tyramine as substrate measured over 45 mins by Amplex Red MAO assay relative to control; conditions: 0.75 h
[21] = molecular target: T11, Adenosine receptor A3 (Homo sapiens) (UniProt P0DMS8); assay: Displacement of [3H]PSB-11 from human A3 receptor expressed in CHO cell membrane at 3 uM by liquid scintillation counting method relative to control relative to control; type: cell membranes
T11 sequence (whole entry): T8 sequence (P0DMS8 whole entry)

[22] = molecular target: T11, Adenosine receptor A3 (Homo sapiens); assay: Displacement of [3H]PSB-11 from human A3 receptor expressed in CHO cell membrane at 10 uM by liquid scintillation counting method relative to control relative to control; type: cell membranes
[23] = molecular target: T7, Adenosine receptor A2b (Homo sapiens); assay: Displacement of [3H]PSB-603 from human A2B receptor expressed in CHO cell membrane at 0.3 uM relative to control; type: cell membranes
[24] = molecular target: T11, Adenosine receptor A3 (Homo sapiens); assay: Displacement of [3H]PSB-11 from human A3 receptor expressed in CHO cell membrane at 1 uM by liquid scintillation counting method relative to control relative to control; type: cell membranes

SMILES | pKi [1] | pKi [2] | pKi [3] | pKi [4] | pIC50 [5] | inhibition at 10 µM [6] | Activity [7] | Activity [8] | Activity [9] | Activity [10] | pKi [11] | Activity [12] | pKi [13] | solubility thermodynamic [14] | solubility thermodynamic [15] | solubility thermodynamic [16] | Activity [17] | Activity [18] | pIC50 [19] | Activity [21] | also measured
Cn1c(=O)c2c(nc3n2CCN(Cc2csc(-c4ccc(C(F)(F)F)cc4)n2)C3)n(C)c1=O | 6.63 | 6.80 | 6.45 | 6.66 | 5.00 | 54% | inactive | inactive | inactive | inactive | < 6.00 | 25% | 5.13 | 200 µg/mL (≈ 420 µM) | < 0.5 µg/mL | < 0.5 µg/mL |  |  |  |  | 
COc1ccc(Br)cc1CCN1CCn2c(nc3c2c(=O)n(C)c(=O)n3C)C1 |  | < 5.82 | < 6.00 |  | < 5.00 | 3% |  |  |  |  | < 6.00 | 8% | < 5.52 | 300 µg/mL (≈ 669 µM) | < 0.5 µg/mL | < 0.5 µg/mL | 3% | 27% | < 5.00 | 14% | inhibition at 10 µM [20]: 34%
C#CCN1CCn2c(nc3c2c(=O)n(C)c(=O)n3C)C1 |  | < 5.82 | < 6.00 |  | < 5.00 | 27% |  |  |  |  | < 6.52 | 10% | < 5.00 |  |  | 800 µg/mL (≈ 2930 µM) | 13% | 28% |  | 19% | Activity [22]: 19%; Activity [23]: 10%
Cn1c(=O)c2c(nc3n2CCN(Cc2csc(-c4cccs4)n2)C3)n(C)c1=O | 6.19 | 6.78 | 6.92 | 6.69 | < 5.00 | 33% | inactive | inactive | inactive | inactive | < 6.00 | 3% | ≤ 5.00 |  |  | 700 µg/mL (≈ 1690 µM) |  |  |  |  | Activity [22]: 46%
Cn1c(=O)c2c(nc3n2CCN(CCCn2cccc2)C3)n(C)c1=O |  | < 5.82 | < 6.00 |  | < 5.00 | 27% |  |  |  |  | < 6.00 | 10% | < 5.52 | > 1500 µg/mL | < 200 µg/mL | < 70 µg/mL | -4% | 10% | < 5.00 | 3% | inhibition at 10 µM [20]: 7%
Cn1c(=O)c2c(nc3n2CCN(c2ccc(Br)cc2)C3)n(C)c1=O |  | < 5.82 | 5.41 |  | 6.88 |  |  |  |  |  | < 6.00 | 11% | < 6.00 |  |  |  | 15% |  |  |  | Activity [24]: 2%
